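1) Cells in 96-well plates. 2) Compound, 48 h, 5 concentrations. 3) Linear interpolation between surrounding doses. 4) Unreached endpoint = highest concentration. At the GI50, growth is halved. At the TGI there is no net growth.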
Key:
Experiment in all cases: growth of human tumour cells (NCI), 48 h
[1] = test system: BT-549 breast
[2] = test system: HCC-2998 colon
[3] = test system: HT29 colon
[4] = test system: NCI-H460 lung
[5] = test system: RXF 393 renal
[6] = test system: SK-OV-3 ovarian
[7] = test system: SNB-75 CNS
[8] = test system: UACC-257 melanoma
[9] = test system: UO-31 renal
[10] = test system: NCI-H226 lung

Compound	GI50 [1]	TGI [1]	GI50 [2]	TGI [2]	GI50 [3]	TGI [3]	GI50 [4]	TGI [4]	GI50 [5]	TGI [5]	GI50 [6]	TGI [6]	GI50 [7]	TGI [7]	GI50 [8]	TGI [8]	GI50 [9]	TGI [9]	GI50 [10]	TGI [10]
O=C1C=C(N2CC2)c2ccccc2C1=O	1.4 µM	2.73 µM	1.76 µM	3.86 µM	2.58 µM	5.57 µM	1.71 µM	3.89 µM	1.64 µM	3.08 µM	1.92 µM	3.41 µM	1.57 µM	3.12 µM	1.69 µM	3.1 µM	1.51 µM	2.87 µM		
COc1ccc(/C=C/c2nc(N3CCOCC3)c3cc(F)c(F)cc3n2)cc1OC	2.83 µM	19.8 µM	7.49 µM	> 100 µM			5.86 µM	> 100 µM	5.06 µM	> 100 µM	11 µM	> 100 µM	6.14 µM	> 100 µM	4.41 µM	> 100 µM	3.65 µM	> 100 µM	3.07 µM	> 100 µM
COc1ccc(-c2nnc3n(C)c(=O)c4ccccc4n23)cc1O	2.91 µM	> 100 µM	2.98 µM	97.9 µM	3.94 µM	43.6 µM	0.172 µM	> 100 µM	0.758 µM	6.21 µM	1.12 µM	32.9 µM	0.161 µM	27.6 µM			2.13 µM	> 100 µM	16.9 µM	> 100 µM
COc1ccc(N2CCN(CC(=O)N3CCN(c4nnc(-c5ccccc5)c(-c5ccccc5)n4)CC3)CC2)cc1	3.47 µM	33 µM	9.73 µM	> 100 µM	3.19 µM	11.3 µM	5.96 µM	> 100 µM	7.88 µM	> 61.2 µM	> 27.9 µM	> 100 µM	7.63 µM	> 100 µM	27.1 µM	> 90.6 µM	3.94 µM	> 90.6 µM	> 100 µM	> 100 µM
COc1cc2c(cc1OCCCCCCNC(=O)c1cc3ccccc3[nH]1)N=CC1CCCN1C2=O (centres undefined)	21.7 µM	74.2 µM	35.8 µM	> 100 µM	41.8 µM	> 100 µM	16.8 µM	62.7 µM	35.3 µM	54.6 µM	64.8 µM	> 100 µM	64.2 µM	> 100 µM	14.4 µM	51.2 µM	33.9 µM	> 100 µM	58 µM	> 100 µM
COC(=O)C1CC2(c3ccc(C)cc3)C(c3ccc(C)cc3)=C(c3ccc(C)cc3)C1(c1ccc(C)cc1)S2=O (centres undefined)	> 100 µM	> 100 µM	> 100 µM	> 100 µM	41.4 µM	> 100 µM	> 100 µM	> 100 µM	90.2 µM	> 100 µM	> 100 µM	> 100 µM	10.6 µM	29.6 µM	> 100 µM	> 100 µM	> 100 µM	> 100 µM	> 100 µM	> 100 µM
c1ccc(-c2n(Cc3ccc4ccccc4n3)c3ccccc3[n+]2Cc2ccc3ccccc3n2)cc1	0.31 µM	1.32 µM	0.319 µM	1.37 µM	0.221 µM	1.23 µM	0.367 µM	1.36 µM	0.304 µM	1.54 µM	0.282 µM	1.18 µM	0.229 µM	0.937 µM	0.252 µM	0.933 µM	1.45 µM	2.89 µM	0.424 µM	2.64 µM
Cc1cc(C)cc(Nc2nccc(-c3c(-c4ccc(F)cc4)ncn3C3CCNCC3)n2)c1	1.52 µM	3.11 µM	1.28 µM	2.64 µM	0.78 µM	2.43 µM	1.27 µM	2.77 µM	1.39 µM	2.92 µM	2.13 µM	5.09 µM	1.25 µM	5.24 µM	2.09 µM	4.17 µM	0.692 µM	2.15 µM	1.67 µM	5.12 µM
COc1cc(C(=O)/C=C/c2c(-c3ccc(F)cc3)nc3sccn23)cc(OC)c1OC	0.342 µM	12.5 µM	2.03 µM	3.99 µM	2.53 µM	6.11 µM	1.95 µM	4.51 µM	0.945 µM	4.23 µM	2.68 µM	11.9 µM	1.83 µM	7.31 µM	14.1 µM	33.7 µM	2.87 µM	> 27 µM	2.09 µM	9.99 µM
COc1ccc(C(=O)Nc2ncc(Cc3ccc(F)cc3)s2)cc1	0.642 µM	> 100 µM	0.163 µM	2.49 µM	0.0438 µM	> 100 µM	0.0408 µM	> 32.6 µM	0.0666 µM	3.18 µM	0.277 µM	> 100 µM	0.036 µM	> 100 µM	7.75 µM	> 100 µM	0.908 µM	> 100 µM	0.0829 µM	> 100 µM
O=C(Cc1ccc(/C=C/C(=O)c2ncc[nH]2)cc1)Nc1ccc(Br)cc1	1.55 µM	4.04 µM	2.46 µM	4.96 µM	0.726 µM	3.71 µM	2.77 µM	8.66 µM	2.4 µM	4.82 µM	8.2 µM	> 16.7 µM	2.37 µM	> 16.7 µM	6.64 µM	> 16.7 µM	1.79 µM	3.86 µM	3.31 µM	10.1 µM
N#Cc1cc2cc3c4c(c2oc1=O)CCCN4CCC3		> 100 µM		> 100 µM		> 100 µM		> 100 µM		> 100 µM		> 100 µM		> 100 µM		> 100 µM		> 100 µM		> 100 µM
CC(=O)NNC(=O)c1nn(-c2ccc(Cl)cc2)cc1OC(C)=O	28.8 µM	> 100 µM	21.4 µM	> 100 µM	42.4 µM	> 93.4 µM	5.76 µM	> 100 µM	16.9 µM	> 83.2 µM	49.5 µM	> 100 µM	> 66.5 µM	99.7 µM	87.8 µM	> 100 µM	17.5 µM	> 86.8 µM	22.1 µM	> 100 µM

— PubChem BioAssay (NCI)
